Columns and labels:
[1] = system: adult rat sciatic nerve fibroblasts (RSF); test: Stripe assay, RSF; assay type: cell-based; set-up: key: Bands that were completely inhibitory to cell adhesion, migration and/or invasion were evaluated as (−); those allowing limited cell adhesion, migration and/or invasion (+/−); those permissive to cell adhesion, migration and/or invasion as (+); details: for DS-PG Effect on Adhesion, Migration and Invasion: 2 days following plating
Description: (§1) Primary Cell Cultures. Primary cultures of rat meningeal fibroblasts (RMF) were obtained from P-3 rat pups. The tissue was removed from the animals and transferred to Leibovitz's L-15 with L-glutamine medium. The tissue was then cut into small pieces with a scalpel blade, enzymatically dissociated with 0.25% trypsin in Ca^2+/Mg^2+ free Hank's balanced salt solution (CMF-HBSS, Gibco Laboratories) for 20 minutes at 37° C., and mechanically triturated. The cells were rinsed with DMEM plus 10% FCS, concentrated by centrifugation and subsequently diluted in DMEM with 10% FCS for plating at 5.0×10^6 cells per 75 cm^2 flask. Adult rat sciatic nerve fibroblasts (RSF) were obtained by explantation of 1 mm sections of adult rat sciatic nerve.
(§2) The stripe assay was performed essentially as described by Snow et al. (1990, Exp. Neural. 309:111-130). Tissue culture Petri dishes (Falcon, 60 mm) were precoated with 0.5 ml of a mixture of 5 cm^2 section nitrocellulose (Schleicher & Schuell, Type BA 85) dissolved in 6 ml methanol, and air dried in a laminar flow hood. Cellulose filter paper (Whatman #1) was cut into 12×0.35 mm strips with a McIlwain tissue chopper (The Mickle Laboratory Engineering Co., LTD). A strip of filter paper was soaked in 20 μl of a solution of DS-PG or KS/CS-PG and LN at given concentration, blotted onto the nitrocellulose-coated dish for 30 sec. and removed. The test solution was allowed to air dry. This process was repeated several times creating clearly defined, equally spaced parallel bands of uniform width on the plates. A thin layer of 0.1 or 1 mg/ml LN was then spread evenly across the bands with a bent glass Pasteur pipet, and covered with culture medium (FIG. 1).
(§3) Plates were seeded with cell suspensions of 2.0×10^5 cells/ml or 4-10 DRG explants. The cultures were assessed for degree of adhesion, migration and/or invasion of the DS-PG or KS/CS-PG bands over a period of up to 7 days using a Leitz Fluovert microscope.
(§4) Bands that were completely inhibitory to cell adhesion, migration and/or invasion were evaluated as (−), those allowing limited cell adhesion, migration and/or invasion (+/−), and those permissive to cell adhesion, migration and/or invasion as (+). cell adhesion was defined as the initial interaction between the cell surface and the substratum which results in cell attachment and spreading. Cell migration was operationally defined as cell movement within the same substratum, and cell invasion was operationally defined as cell movement from one type of substratum to another type of substratum.

[2] = system: MCG-28 young immortalized mouse astrocyte; test: Stripe assay, MCG-28; assay type: cell-based; set-up: key: Bands that were completely inhibitory to cell adhesion, migration and/or invasion were evaluated as (−); those allowing limited cell adhesion, migration and/or invasion (+/−); those permissive to cell adhesion, migration and/or invasion as (+); details: MCG28; for DS-PG Effect on Adhesion, Migration and Invasion: 2 days following plating
Description: (§5) Cell lines. Murine 3T3 fibroblast (NIH), rat C6 glioma (Paganetti et al., 1988, J. Cell Biol. 107:2281) and MCG-28 young immortalized mouse astrocyte (a murine neonatal astrocyte line immortalized with SV-40) were grown in medium composed of Dulbecco's modified Eagle medium (DMEM), 10% fetal calf serum (Gibco Laboratories), and penicillin G/streptomycin (100 units/ml, 100 μg/ml respectively, Gibco Laboratories). For the stripe assay, confluent plates were disaggregated with 0.05% trypsin, 0.53 mM EDTA (Gibco Laboratories) and seeded at 200,000 cells/ml (3 ml/plate). For the cell adhesion assays, confluent cultures were disaggregated with 0.03% EDTA and plated in a 96-well microtiter plate at 20,000-100,000 cells per well. PC12 cells, a pheochromocytoma cell line (Green L. A. & Tischler A. S., 1976, Proc. Natl. Acad. Sci. U.S.A. 73:2424), were grown in medium containing Roswell Park Memorial Institute (RPMI) medium 1640 (Gibco Laboratories), 10% horse serum, 5% fetal calf serum (FCS), and penicillin G/streptomycin (100 units/ml, 100 μg/ml respectively, Gibco Laboratories). The cells were disaggregated with 0.03% EDTA and plated in a 96-well microtiter plate at 3,000 cells per well.
as §2, §3, §4

3T3 cells = test: Colorimetric cell adhesion assay, 3T3; assay type: cell-based, mouse; details: 3T3 cells on PLL; 4 hr incubation; FIG. 7
Description: as §5
(§6) Microtiter plates were precoated with poly-L-lysine and blocked with 1% BSA in DMEM for 20 min prior to addition of cells. The cells were plated on the precoated 96-well plates and test compounds were added to the culture medium. Following 4-24 hr incubation at 36° C., 5% C02, in a humidified incubator, the tetrazolium salt MTT (3-(4,5-dimethylthazol-2-yl)-2,5-diphenyl tetrazolium bromide) was added. The cultures were incubated for 2 hr to allow mitochondrial succinate dehydrogenase, found in viable cells, to […] the MTT to its formazan blue reaction product. The media was aspirated and the wells were rinsed to remove all detached cells. The formazan blue reaction product in attached cells was solubilized with 0.08 N HCl in isopropanol, and the plates were read in a microtiter plate reader (Dynatech MR4000) at 570 nm with a 630 nm reference filter. The resulting optical density readings are directly related to the number of viable cells in the well (Mosmann, T., 1983, J. Immunol. Methods 65:55-63). The samples were run in 3-6 replicates per point and the SD was less than 5%.
(§7) The adhesion of fibroblasts to PLL-coated microtiter plates in the presence of test compounds in the culture medium was evaluated using an MTT assay as described in Section 8.1.5., supra, and the number of attached cells was expressed as percent of control. The effect of 4 hr incubation in the presence of heparin, pentosan polysulfate, dextran sulfate, and dextran on adhesion of rat meningeal fibroplasts (RMF) and 3T3 cells to PLL is shown in FIG. 7.

[3] = system: rat meningeal fibroblasts (RMF); test: Colorimetric cell adhesion assay, RMF; assay type: cell-based; details: RMF on PLL; 4 hr incubation; FIG. 7
Description: as §1, §6, §7

[4] = 0.25 mg/ml KS/CS-PG + LN stripes
[5] = 0.5 mg/ml KS/CS-PG + LN stripes
[6] = 1.0 mg/ml KS/CS-PG + LN stripes
[7] = 2.7 mg/ml KS/CS-PG + LN stripes
[8] = 0.1 mg/ml DS-PG + 20 μg/ml LN stripes
[9] = 0.2 mg/ml DS-PG + 20 μg/ml LN stripes
[10] = 0.4 mg/ml DS-PG + 20 μg/ml LN stripes
[11] = 0.8 mg/ml DS-PG + 20 μg/ml LN stripes

keratan sulfate/chrondroitin sulfate-proteoglycans [KS/CS-PG]
Effect of KS/CS-PG on Cell Migration [1, 4]: + | Effect of KS/CS-PG on Cell Migration [1, 5]: +/− | Effect of KS/CS-PG on Cell Migration [1, 6]: +/− | Effect of KS/CS-PG on Cell Migration [1, 7]: +/− | Effect of KS/CS-PG on Cell Migration [2, 4]: + | Effect of KS/CS-PG on Cell Migration [2, 5]: + | Effect of KS/CS-PG on Cell Migration [2, 6]: + | Effect of KS/CS-PG on Cell Migration [2, 7]: +/−

dextran [reference compound]
number of attached cells compared to untreated controls (3T3 cells): slight increase | number of attached cells compared to untreated controls [3]: slight increase

Dermatan sulfate proteoglycan [DS-PG]
DS-PG Effect on Adhesion, Migration and Invasion [1, 8]: +/− | DS-PG Effect on Adhesion, Migration and Invasion [1, 9]: +/− | DS-PG Effect on Adhesion, Migration and Invasion [1, 10]: − | DS-PG Effect on Adhesion, Migration and Invasion [1, 11]: − | DS-PG Effect on Adhesion, Migration and Invasion [2, 8]: + | DS-PG Effect on Adhesion, Migration and Invasion [2, 9]: + | DS-PG Effect on Adhesion, Migration and Invasion [2, 10]: − | DS-PG Effect on Adhesion, Migration and Invasion [2, 11]: −

Heparin
number of attached cells compared to untreated controls (3T3 cells): decreased | number of attached cells compared to untreated controls [3]: decreased

dextran sulfate
number of attached cells compared to untreated controls (3T3 cells): decreased | number of attached cells compared to untreated controls [3]: decreased

— patent US6756362B2, “Methods and compositions based on inhibition of cell invasion and fibrosis by anionic polymers” (priority 1991, dated 2004)
